According to patent publication US11845773B2, “Trehalose analogues” (Central Michigan University, priority 2016, dated 2023):

Key:
C. glutamicum = assay: AlkTMM labeling specificity, C. glutamicum; type: cell-based, Corynebacterium glutamicum; conditions: species specificity, flow cytometry and microscopy
[1] = system: SugABC-LpqY trehalose transporter; assay: Labeling in Msmeg wild type versus Msmeg ΔsugC; type: cell-based, Mycobacterium smegmatis; conditions: Msmeg wild type vs ΔsugC
[2] = system: Msmeg PG-AGM and extractable lipids fractions; assay: Cellular fractionation and fluorescence analysis of labeled Msmeg; type: cell-based, Mycobacterium smegmatis; conditions: for distribution of fluorescence between PG-AGM and extractable lipids fractions: Msmeg 4 h, O-AlkTMM 50 μM, N-AlkTMM 250 μm, 6-TreAz 25 μM, CHCl3/CH3OH extraction
Procedure: Cellular fractionation and analysis of labeled Msmeg. 10 mL Msmeg cultures were grown in 7H9 liquid medium in the presence of O-AlkTMM (50 μM), N-AlkTMM (250 μm) or left untreated in 15 mL conical tubes. A higher concentration of N-AlkTMM was used to maximize labeling efficiency. In parallel, cultures were grown in the presence of 6-TreAz (25 μM) or left […] untreated. Cells were incubated with shaking for 4 h at 37° C. until reaching late-log phase, then pelleted by centrifugation and washed with PBSB three times as described above. For O- and N-AlkTMM-labeled cells and their untreated control, the above-described click chemistry procedure was carried out with Az488 at a reaction volume of 500 μL. For 6-TreAz-labeled cells and their untreated control, the above-described click chemistry procedure was carried out with Alk488 at a reaction volume of 500 μL. After the click reactions, cells were pelleted by centrifugation and washed with PBSB three times as described above. Aliquots were removed and resuspended in PBS 1× for measurement of OD600 (for normalization of fluorescence values) and analysis by flow cytometry as shown in FIG. 13. The remainder of the cells were resuspended in 1 mL HPLC grade CH3OH and transferred to a glass screw-cap culture tube containing 2 mL CHCl3 and equipped with a stir bar. The CHCl3/CH3OH (2:1) cell suspension was stirred overnight to accomplish separation of the soluble extractable lipids from the insoluble PG-AGM material. The insoluble material was pelleted by centrifugation (3,600 rpm, 10 minutes, room temperature) and washed two times with CHCl3/CH3OH (2:1). The CHCl3/CH3OH (2:1) supernatants containing soluble extractable lipids were combined in a 20 mL glass scintillation vial and dried by rotary evaporation. Both fractions were subjected to TLC analysis as described in FIG. 12 to confirm separation of the extractable lipids from the PG-AGM material. Both fractions were then resuspended in 1 mL 5% aqueous tetrabutylammonium hydroxide (TBAH) in glass screw-cap culture tubes, sealed and then stirred overnight at 100° C. to saponify and solubilize the samples. Next, the samples were cooled to room temperature and 200 μL aliquots were transferred to a black flat-bottom 96-well plate.

[3] = system: M. smegmatis mc2155 (Msmeg); assay: Metabolic labeling of Msmeg with AlkTMM probes, CuAAC with Az488, flow cytometry / microscopy; type: cell-based, Mycobacterium smegmatis; design: concentration at which labeling was saturable: unit not given here; conditions: for labeling after only a few seconds of culture time / labeling features in time-course fluorescence microscopy: Msmeg; for change in labeling between log- and stationary-phase Msmeg: growth phase dependence; for labeling of Msmeg: species specificity, flow cytometry and microscopy
Bacillus subtilis = assay: AlkTMM labeling specificity, B. subtilis; type: cell-based; conditions: species specificity, flow cytometry and microscopy
Msmeg [4] = assay: Growth of Msmeg during treatment with probes; type: cell-based, Mycobacterium smegmatis; conditions: up to 250 μM
Procedure: Plates were incubated at 37° C. […] Tubes were incubated at 37° C.

Ag85 = assay: Effect of ebselen on AlkTMM labeling in Msmeg (Ag85 dependency); type: cell-based, Mycobacterium smegmatis; conditions: ebselen 50 μg/mL 8 h; for decrease of labeling upon treatment of Msmeg with ebselen: then reporter 4 h (O-AlkTMM 50 μM; N-AlkTMM 100 μM)
Procedure: Effect of ebselen on AlkTMM labeling in Msmeg. Msmeg was cultured in 7H9 liquid medium in 96-well plates in the presence of ebselen (50 μg/mL) for 8 hours, after which the chemical reporter (O-AlkTMM, 50 μM; N-AlkTMM, 100 μM; 6-TreAz, 25 μM) was added and the cells were incubated for another 4 hours. Cells were subjected to CuAAC and analyzed by flow cytometry as described above.

Msmeg [5] = assay: Competition of AlkTMM labeling in Msmeg with unlabeled probes; type: cell-based, Mycobacterium smegmatis; conditions: competitor 250, 1000, 5000 μM, 4 h; O-AlkTMM 50 μM with O—C7TMM, N-AlkTMM 100 μM with N—C7TMM
Procedure: Competition of AlkTMM labeling in Msmeg. For O-AlkTMM competition experiments, Msmeg was cultured in 7H9 liquid medium in 96-well plates in the presence of O-AlkTMM (50 μM) and its unlabeled version, O—C7TMM, at concentrations of 250, 1000, and 5000 μM (or without competitor) for 4 h. For N-AlkTMM competition experiments, Msmeg was cultured in 7H9 liquid medium in the presence of N-AlkTMM (100 μM) and its unlabeled version, […], at concentrations of 250, 1000, and 5000 μM (or without competitor) for 4 h. Cells were subjected to CuAAC and analyzed by flow cytometry as described above.

Escherichia coli = assay: AlkTMM labeling specificity, E. coli; type: cell-based; conditions: species specificity, flow cytometry and microscopy
Cglut = assay: Metabolic labeling of Cglut with TMM reporters 4-6; conditions: flow cytometry
Msmeg [6] = assay: Metabolic labeling of Msmeg with TMM reporters 1-6 (CuAAC, SPAAC, tetrazine ligation or one-step); conditions: 4 h; for concentration of labeling saturation: Msmeg and Cglut, range up to 250 μM, flow cytometry (FIG. 62)
[7] = Water solubility of reporters

Q: What does the source list for `C#CCCCCC(=O)NCC1O[C@H](O[C@H]2OC(CO)[C@@H](O)C(O)[C@H]2O)C(O)[C@@H](O)[C@@H]1O` (stereo partly drawn) [N-AlkTMM, N-(6-heptynoyl)-6-amino-6-deoxy-α,α-D-trehalose]?
A: labeling of C. glutamicum (C. glutamicum): strong labeling of the cell surface; dependence of incorporation on trehalose transporter SugABC-LpqY [1]: not dependent on the trehalose transporter SugABC-LpqY; distribution of fluorescence between PG-AGM and extractable lipids fractions [2]: signal only in the extractable lipids fraction; labeling after only a few seconds of culture time [3]: significant labeling could be detected; labeling features in time-course fluorescence microscopy [3]: intensely fluorescent septa in dividing cells, highly polar labeling for short pulses, and diffuse surface labeling for longer pulses; S/N reached under the conditions tested ([3]; Msmeg 14 h, 1-250 μm probe, Az488 CuAAC, flow cytometry): > 150; signal lower than O-AlkTMM at the same concentrations ([3]; Msmeg 14 h, flow cytometry): approximately 10 fold; change in labeling between log- and stationary-phase Msmeg [3]: significant decrease; labeling of Msmeg [3]: strong labeling of the cell surface; labeling of B. subtilis (Bacillus subtilis): no labeling above background; growth impairment of Msmeg (Msmeg [4]): no growth impairment; decrease of labeling upon treatment of Msmeg with ebselen (Ag85): ~85%; competition of labeling signal by unlabeled version of the probe (Msmeg [5]): Dose-dependent competition of signal; labeling of E. coli (Escherichia coli): no labeling above background

Q: What does the source list for `O=C(CCCCCCCCCNC(=S)Nc1ccc2c(c1)C(=O)OC21c2ccc(O)cc2Oc2cc(O)ccc21)OC[C@H]1O[C@H](O[C@H]2O[C@H](CO)[C@@H](O)[C@H](O)[C@H]2O)[C@H](O)[C@@H](O)[C@@H]1O` [O-FITC-TMM, 6-O-(10-[(fluorescein-5-yl)thioureido]decanoyl)-α,α-D-trehalose]?
A: incorporation into Cglut relative to Msmeg (Cglut): much more efficiently than in Msmeg; concentration of labeling saturation (Msmeg [6]): ≥ 100 µM

Q: With `C#CCCC(=O)OCC1O[C@H](O[C@H]2OC(CO)[C@@H](O)C(O)C2O)C(O)C(O)[C@@H]1O` (stereo partly drawn) [O-AlkTMM-C5, 6-O-(4-pentynoyl)-α,α-D-trehalose] as the compound, how does the water solubility [7] read?
A: The water solubility was “conveniently water-soluble”.

Q: Which “dependence of labeling on acyl chain length” value (Msmeg [6]; Msmeg, 50 μM reporter, azido-488 CuAAC, flow cytometry) does the source give for “6-O-(10-undecynoyl)-α,α-D-trehalose [O-AlkTMM-C11]” here?
A: The value was “small increase”.

Q: With `[N-]=[N+]=NCCCCCCCCCC(=O)OCC1O[C@H](O[C@H]2OC(CO)[C@@H](O)C(O)C2O)C(O)C(O)[C@@H]1O` (stereo partly drawn) [O-AzTMM-C10, 6-O-(10-azidodecanoyl)-α,α-D-trehalose] as the compound, how does the “concentration of labeling saturation” value (Msmeg [6]) read?
A: The value was “approximately 25 μM”.

Q: Which “labeling of C. glutamicum” value (C. glutamicum) does the source give for `C#CCCCCC(=O)OCC1O[C@H](O[C@H]2OC(CO)[C@@H](O)C(O)[C@H]2O)C(O)[C@@H](O)[C@@H]1O` (stereo partly drawn) [O-AlkTMM, 6-O-(6-heptynoyl)-α,α-D-trehalose] here?
A: The value was “strong labeling of the cell surface”.

Q: And the “dependence of incorporation on trehalose transporter SugABC-LpqY” value [1]?
A: The value was “not dependent on the trehalose transporter SugABC-LpqY”.

Q: What about the water solubility [7] of the same compound?
A: Its water solubility is “conveniently water-soluble”.

Q: And the “distribution of fluorescence between PG-AGM and extractable lipids fractions” value [2]?
A: The value was “nearly all of the fluorescence from O-AlkTMM treated Msmeg was present in the PG-AGM fraction”.

Q: And the “fraction of probe reacting with TMM to form alkyne-labeled TDM” value ([2]; estimated from extractable lipids fluorescence, FIG. 7)?
A: The value was no more than 10%.

Q: And the “labeling after only a few seconds of culture time” value [3]?
A: The value was “significant labeling could be detected”.

Q: What about the “labeling features in time-course fluorescence microscopy” value [3] of the same compound?
A: The value was “intensely fluorescent septa in dividing cells, highly polar labeling for short pulses, and diffuse surface labeling for longer pulses”.

Q: What about the “concentration at which labeling was saturable” value ([3]; Msmeg 14 h, Az488 CuAAC, flow cytometry) of the same compound?
A: Its value is 50.

Q: And the “signal-to-noise ratio (S/N) of labeling” value ([3]; Msmeg cultured 14 h, Az488 CuAAC, flow cytometry)?
A: Its value is greater than 20.

Q: What about the “change in labeling between log- and stationary-phase Msmeg” value [3] of the same compound?
A: The value was “significant decrease”.

Q: And the “labeling of Msmeg” value [3]?
A: The value was “strong labeling of the cell surface”.

Q: And the “labeling of B. subtilis” value (Bacillus subtilis)?
A: The value was “no labeling above background”.

Q: What about the “growth impairment of Msmeg” value (Msmeg [4]) of the same compound?
A: Its value is “no growth impairment”.

Q: What about the “decrease of labeling upon treatment of Msmeg with ebselen” value (Ag85) of the same compound?
A: Its value is “approximately 70%”.

Q: And the “competition of labeling signal by unlabeled version of the probe” value (Msmeg [5])?
A: Its value is “Dose-dependent competition of signal”.

Q: And the “labeling of E. coli” value (Escherichia coli)?
A: Its value is “no labeling above background”.

Q: Which “incorporation into Cglut relative to Msmeg” value (Cglut) does the source give for `O=C(CCCCCCCCCNC(=O)OC1CC/C=C/CCC1)OC[C@H]1O[C@H](O[C@H]2O[C@H](CO)[C@@H](O)[C@H](O)[C@H]2O)[C@H](O)[C@@H](O)[C@@H]1O` (stereo partly drawn) [O-TCO-TMM, 6-O-(10-{N—[(E)-cylcooct-4-en1yloxy]carbonyl}aminodecanoyl)-α,α-D-trehalose] here?
A: Its value is “much more efficiently than in Msmeg”.

Q: And the “concentration of labeling saturation” value (Msmeg [6])?
A: Its value is “approximately 25 μM”.

Q: With `[N-]=[N+]=NC[C@H]1O[C@H](O[C@H]2O[C@H](CO)[C@@H](O)[C@H](O)[C@H]2O)[C@H](O)[C@@H](O)[C@@H]1O` [6-TreAz, reference compound] as the compound, how does the “distribution of fluorescence between PG-AGM and extractable lipids fractions” value [2] read?
A: The value was “signal exclusively in the extractable lipids fraction”.

Q: And the “effect of ebselen treatment on Msmeg labeling” value (Ag85; then 6-TreAz 25 μM 4 h)?
A: The value was “did not reduce”.
